Test results reported in patent publication US20120065126A1, “Pharmaceutical Compositions Containing Antifungal Peptides” (BASF SE, priority 2009, published 2012).

Key:
[1] = system: Trichophyton rubrum (DSM21146); assay: Short-term effect (CFU); assay type: cell-based
Method: (§1) For this purpose, the procedure was as follows.
MEP growth medium according to DSMZ:
30 g of malt extract (Becton, Dickinson and Company, Sparks, USA) 3 g of soya peptone (Becton, Dickinson and Company, Sparks, USA) make up to 1 liter, set pH 5.6
The growth test was effected as follows: an agar plate on which the Trichophyton rubrum culture had grown was rinsed with 5 ml of MEP medium.
1.5 ml reaction vessels were each filled with 1 ml of MEP medium and inoculated with 10 μl of the T. rubrum suspension. The concentration of the peptide solution in water or ZPT solution (zinc pyrithione, >96%, Sigma Aldrich) dissolved in DMSO was 2% (w/w).
(§2) The following growth was compared: • T. rubrum suspension and addition of P18 peptide with a final concentration in the 1.5 ml reaction vessel of 50 ppm after 5 minutes, 10 minutes, 20 minutes and 60 minutes • T. rubrum suspension and addition of P18 peptide with a final concentration in the 1.5 ml reaction vessel of 100 ppm after 5 minutes, 10 minutes, 20 minutes and 60 minutes • T. rubrum suspension and addition of P18 peptide with a final concentration in the 1.5 ml reaction vessel of 200 ppm after 5 minutes, 10 minutes, 20 minutes and 60 minutes • T. rubrum suspension and addition of P18 peptide with a final concentration in the 1.5 ml reaction vessel of 500 ppm after 5 minutes, 10 minutes, 20 minutes and 60 minutes • T. rubrum suspension and addition of P18 peptide with a final concentration in the 1.5 ml reaction vessel of 1000 ppm after 5 minutes, 10 minutes, 20 minutes and 60 minutes • T. rubrum suspension and addition of ZPT with a final concentration in the 1.5 ml reaction vessel of 50 ppm after 5 minutes, 10 minutes, 20 minutes and 60 minutes • T. rubrum suspension and addition of ZPT with a final concentration in the 1.5 ml reaction vessel of 100 ppm after 5 minutes, 10 minutes, 20 minutes and 60 minutes • T. rubrum suspension and addition of ZPT with a final concentration in the 1.5 ml reaction vessel of 200 ppm after 5 minutes, 10 minutes, 20 minutes and 60 minutes • T. rubrum suspension and addition of ZPT with a final concentration in the 1.5 ml reaction vessel of 500 ppm after 5 minutes, 10 minutes, 20 minutes and 60 minutes • T. rubrum suspension and addition of ZPT with a final concentration in the 1.5 ml reaction vessel of 1000 ppm after 5 minutes, 10 minutes, 20 minutes and 60 minutes
(§3) The 1.5 ml reaction vessels were incubated at room temperature.
After the incubation times specified, the colony forming units (CFU) were determined by streaking 1 μl of each of the suspensions diluted with 20 μl of MEP medium and, after incubation for 2 days, counting the colonies.

[2] = system: Staphylococcus epidermidis (DSM 1798); assay: Short-term effect (CFU); assay type: cell-based; conditions: for Inhibition in words: up to 60 minutes
Method: as §1
TSBY growth medium: Ready-made TSB medium (Becton, Dickinson and Company, Sparks, USA); 17 g of pancreatin-degraded casein 3 g of pancreatin-degraded soya 2.5 g of dextrose 5 g of sodium chloride 2.5 g of dipotassium phosphate 3 g of yeast extract (Becton, Dickinson and Company, Sparks, USA) make up to 1 liter, set pH 7
The growth test was effected as follows: 5 ml of TSBY medium were inoculated with S. epidermidis and incubated at 37° C. and 200 rpm overnight.
1.5 ml reaction vessels were each filled with 1 ml of TSBY medium and inoculated with S. epidermidis suspension from the overnight culture. The S. epidermidis suspension was adjusted at the start of the experiment to an optical density, measured at 600 nm, of 0.1. The concentration of the peptide solution in water or ZPT solution (zinc pyrithione, >96%, Sigma Aldrich) dissolved in DMSO was 2% (w/w).
as §2, with “S. epidermidis” for “T. rubrum”
as §3
After the incubation times specified, the colony forming units (CFU) were determined by streaking 1 μl of each of the suspensions diluted in 20 μl of TSBY medium and, after incubation for 2 days, counting the colonies.

H-KWKLFKKIPKFLHLAKKF-NH2 [P18, H-KWKLFKKIPKFLHLAKKF-NH2]
Colony forming units after the incubation time specified ([1]; 50 ppm, 5 minutes): 59 CFU | Colony forming units after the incubation time specified ([1]; 50 ppm, 10 minutes): 55 CFU | Colony forming units after the incubation time specified ([1]; 50 ppm, 20 minutes): 35 CFU | Colony forming units after the incubation time specified ([1]; 50 ppm, 60 minutes): 23 CFU | Colony forming units after the incubation time specified ([1]; 100 ppm, 5 minutes): 41 CFU | Colony forming units after the incubation time specified ([1]; 100 ppm, 10 minutes): 22 CFU | Colony forming units after the incubation time specified ([1]; 100 ppm, 20 minutes): 36 CFU | Colony forming units after the incubation time specified ([1]; 100 ppm, 60 minutes): 18 CFU | Colony forming units after the incubation time specified ([1]; 200 ppm, 5 minutes): 32 CFU | Colony forming units after the incubation time specified ([1]; 200 ppm, 10 minutes): 39 CFU | Colony forming units after the incubation time specified ([1]; 200 ppm, 20 minutes): 24 CFU | Colony forming units after the incubation time specified ([1]; 200 ppm, 60 minutes): 5 CFU | Colony forming units after the incubation time specified ([1]; 500 ppm, 5 minutes): 30 CFU | Colony forming units after the incubation time specified ([1]; 500 ppm, 10 minutes): 18 CFU | Colony forming units after the incubation time specified ([1]; 500 ppm, 20 minutes): 9 CFU | Colony forming units after the incubation time specified ([1]; 500 ppm, 60 minutes): 1 CFU | Colony forming units after the incubation time specified ([1]; 1000 ppm, 5 minutes): 17 CFU | Colony forming units after the incubation time specified ([1]; 1000 ppm, 10 minutes): 18 CFU | Colony forming units after the incubation time specified ([1]; 1000 ppm, 20 minutes): 10 CFU | Colony forming units after the incubation time specified ([1]; 1000 ppm, 60 minutes): 2 CFU | Factor of reduction of the living cell count ([1]; cell count 10 times higher (data not shown)): ≤ 2 | Factor of reduction of the living cell count ([1]; concentration range studied (50-1000 ppm), first 60 minutes): ≤ 20 | Colony forming units after the incubation time specified ([2]; 50 ppm, 5 minutes): 221 ± 5 CFU | Colony forming units after the incubation time specified ([2]; 50 ppm, 10 minutes): 19 ± 3 CFU | Colony forming units after the incubation time specified ([2]; 50 ppm, 20 minutes): 4.75 ± 0.4 CFU | Colony forming units after the incubation time specified ([2]; 50 ppm, 60 minutes): 0.75 ± 0.4 CFU | Colony forming units after the incubation time specified ([2]; 100 ppm, 5 minutes): 171 ± 219 CFU | Colony forming units after the incubation time specified ([2]; 100 ppm, 10 minutes): 6.5 ± 4.2 CFU | Colony forming units after the incubation time specified ([2]; 100 ppm, 20 minutes): 0.5 ± 0 CFU | Colony forming units after the incubation time specified ([2]; 100 ppm, 60 minutes): 0 ± 0 CFU | Colony forming units after the incubation time specified ([2]; 200 ppm, 5 minutes): 14 ± 18 CFU | Colony forming units after the incubation time specified ([2]; 200 ppm, 10 minutes): 5.75 ± 4.6 CFU | Colony forming units after the incubation time specified ([2]; 200 ppm, 20 minutes): 0.25 ± 0.4 CFU | Colony forming units after the incubation time specified ([2]; 200 ppm, 60 minutes): 0 ± 0 CFU | Colony forming units after the incubation time specified ([2]; 500 ppm, 5 minutes): 19 ± 22 CFU | Colony forming units after the incubation time specified ([2]; 500 ppm, 10 minutes): 0.25 ± 0.4 CFU | Colony forming units after the incubation time specified ([2]; 500 ppm, 20 minutes): 0.75 ± 1.1 CFU | Colony forming units after the incubation time specified ([2]; 500 ppm, 60 minutes): 0 ± 0 CFU | Colony forming units after the incubation time specified ([2]; 1000 ppm, 5 minutes): 1.25 ± 0.4 CFU | Colony forming units after the incubation time specified ([2]; 1000 ppm, 10 minutes): 0 ± 0 CFU | Colony forming units after the incubation time specified ([2]; 1000 ppm, 20 minutes): 0 ± 0 CFU | Colony forming units after the incubation time specified ([2]; 1000 ppm, 60 minutes): 0 ± 0 CFU

zinc pyrithione [ZPT]
Inhibition in words ([1]; 50-1000 ppm, up to 60 minutes): no significant inhibition | Colony forming units after the incubation time specified ([1]; 50 ppm, 5 minutes): 44 CFU | Colony forming units after the incubation time specified ([1]; 50 ppm, 10 minutes): 51 CFU | Colony forming units after the incubation time specified ([1]; 50 ppm, 20 minutes): 51 CFU | Colony forming units after the incubation time specified ([1]; 50 ppm, 60 minutes): 55 CFU | Colony forming units after the incubation time specified ([1]; 100 ppm, 5 minutes): 38 CFU | Colony forming units after the incubation time specified ([1]; 100 ppm, 10 minutes): 54 CFU | Colony forming units after the incubation time specified ([1]; 100 ppm, 20 minutes): 50 CFU | Colony forming units after the incubation time specified ([1]; 100 ppm, 60 minutes): 48 CFU | Colony forming units after the incubation time specified ([1]; 200 ppm, 5 minutes): 44 CFU | Colony forming units after the incubation time specified ([1]; 200 ppm, 10 minutes): 51 CFU | Colony forming units after the incubation time specified ([1]; 200 ppm, 20 minutes): 56 CFU | Colony forming units after the incubation time specified ([1]; 200 ppm, 60 minutes): 49 CFU | Colony forming units after the incubation time specified ([1]; 500 ppm, 5 minutes): 43 CFU | Colony forming units after the incubation time specified ([1]; 500 ppm, 10 minutes): 47 CFU | Colony forming units after the incubation time specified ([1]; 500 ppm, 20 minutes): 51 CFU | Colony forming units after the incubation time specified ([1]; 500 ppm, 60 minutes): 44 CFU | Colony forming units after the incubation time specified ([1]; 1000 ppm, 5 minutes): 52 CFU | Colony forming units after the incubation time specified ([1]; 1000 ppm, 10 minutes): 62 CFU | Colony forming units after the incubation time specified ([1]; 1000 ppm, 20 minutes): 47 CFU | Colony forming units after the incubation time specified ([1]; 1000 ppm, 60 minutes): 48 CFU | Inhibition in words ([2]; 50 ppm and 100 ppm): low inhibition | Colony forming units after the incubation time specified ([2]; 50 ppm, 5 minutes): 2000 ± 0 CFU | Colony forming units after the incubation time specified ([2]; 50 ppm, 10 minutes): 2000 ± 0 CFU | Colony forming units after the incubation time specified ([2]; 50 ppm, 20 minutes): 1033 ± 1368 CFU | Colony forming units after the incubation time specified ([2]; 50 ppm, 60 minutes): 522 ± 721 CFU | Colony forming units after the incubation time specified ([2]; 100 ppm, 5 minutes): 2000 ± 0 CFU | Colony forming units after the incubation time specified ([2]; 100 ppm, 10 minutes): 2000 ± 0 CFU | Colony forming units after the incubation time specified ([2]; 100 ppm, 20 minutes): 1200 ± 1131 CFU | Colony forming units after the incubation time specified ([2]; 100 ppm, 60 minutes): 707 ± 698 CFU | Colony forming units after the incubation time specified ([2]; 200 ppm, 5 minutes): 2000 ± 0 CFU | Colony forming units after the incubation time specified ([2]; 200 ppm, 10 minutes): 2000 ± 0 CFU | Colony forming units after the incubation time specified ([2]; 200 ppm, 20 minutes): 2000 ± 0 CFU | Colony forming units after the incubation time specified ([2]; 200 ppm, 60 minutes): 2000 ± 0 CFU | Colony forming units after the incubation time specified ([2]; 500 ppm, 5 minutes): 2000 ± 0 CFU | Colony forming units after the incubation time specified ([2]; 500 ppm, 10 minutes): 2000 ± 0 CFU | Colony forming units after the incubation time specified ([2]; 500 ppm, 20 minutes): 2000 ± 0 CFU | Colony forming units after the incubation time specified ([2]; 500 ppm, 60 minutes): 2000 ± 0 CFU | Colony forming units after the incubation time specified ([2]; 1000 ppm, 5 minutes): 2000 ± 0 CFU | Colony forming units after the incubation time specified ([2]; 1000 ppm, 10 minutes): 2000 ± 0 CFU | Colony forming units after the incubation time specified ([2]; 1000 ppm, 20 minutes): 2000 ± 0 CFU | Colony forming units after the incubation time specified ([2]; 1000 ppm, 60 minutes): 2000 ± 0 CFU | Inhibition in words ([2]; higher concentrations (200-1000 ppm)): no significant inhibition
